One assay concerns the target GSPT1 protein (Homo sapiens (Human), UniProt P15170+Q96SW2). Briefly: Western-blot assay of substrate protein degradation in hPBMC, GSPT1. The settings on record: hPBMC cells, compound 500 nM, 24 hours, Western blot. It counts as cell-based. The procedure: (§1) After treating the cells with the compounds for 24 hours, the cells were collected and lysed using RIPA protein lysate containing phosphatase inhibitors. The lysate was then placed on ice for 30-60 minutes and centrifuged. The supernatant was aspirated as the extracted total cell protein. The protein concentration of the supernatant was determined using the conventional BCA (Bicinchoninic Acid) assay. The supernatant was then mixed with 4×SDS sample loading buffer, denatured at 95° C. for 5 minutes, and then subjected to SDS-PAGE electrophoresis on a polyacrylamide gel, followed by transfer to a nitrocellulose membrane (NC membrane). The membrane was blocked with blocking buffer at room temperature for 1-2 hours, and then antibody incubation and detection were carried out according to the antibody instructions provided by Cell Signaling Technology.
(§2) Half-Maximal Degradation Concentration value (the drug concentration required for degrading proteins by 50%, abbreviated as DC50) reads method: comparing the gray values of the Western blotting bands for the drug treatment with the gray values of the Western blotting band for the DMSO control, and reading the drug concentration range corresponding to the gray value of the Western blotting bands for the drug treatment which is equal to half of the gray value of the Western blotting band for the DMSO control.
(§3) DC50 value could also be calculated as follows: using software ImageJ to quantify the gray values of the Western blotting bands for the drug treatment, fitting the relationship curve between drug concentrations and gray values, and from the fitted curve, calculating the drug concentration corresponding to half of the gray value of the Western blotting band for the DMSO control.
(A western blot detects proteins with antibodies after separation by electrophoresis.)

For assay [1], the target named is human Cereblon WT GST-tagged protein (Homo sapiens (Human), UniProt Q96SW2). Kind of assay: CRBN-binding affinity, HTRF (CEREBLON BINDING kit). In short, it runs like this: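 GST-tagged human WT Cereblon incubated with compound, then Thalidomide-Re tracer and anti-GST Eu antibody added. Displacement read by HTRF, reported as CRBN binding inhibition rate against blank control wells without protein.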
Chain of human Cereblon WT GST-tagged protein (Q96SW2 whole entry): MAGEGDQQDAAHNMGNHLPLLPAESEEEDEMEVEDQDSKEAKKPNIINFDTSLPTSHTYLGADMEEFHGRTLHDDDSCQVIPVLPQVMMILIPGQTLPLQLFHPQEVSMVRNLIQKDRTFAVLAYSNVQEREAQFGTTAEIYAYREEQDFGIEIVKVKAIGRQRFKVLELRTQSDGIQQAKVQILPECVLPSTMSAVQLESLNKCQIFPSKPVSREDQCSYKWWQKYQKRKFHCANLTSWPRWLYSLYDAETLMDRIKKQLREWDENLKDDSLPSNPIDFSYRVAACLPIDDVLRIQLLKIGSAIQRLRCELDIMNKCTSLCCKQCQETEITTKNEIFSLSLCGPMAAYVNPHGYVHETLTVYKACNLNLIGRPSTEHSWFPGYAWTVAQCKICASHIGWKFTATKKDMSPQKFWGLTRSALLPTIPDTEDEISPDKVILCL
Background: TR-FRET usually uses a lanthanide donor and a delayed reading to cut background.

The target of another assay is IKZF3 protein (Homo sapiens (Human), UniProt Q96SW2+Q9UKT9). Briefly: Western-blot assay of substrate protein degradation in hPBMC, IKZF3. It counts as cell-based. The settings on record: hPBMC cells, compound 500 nM, 24 hours, Western blot. On the procedure:
as §1, §2, §3

Another assay addresses IKZF1 protein (Homo sapiens (Human), UniProt Q13422+Q96SW2). Kind of assay: Western-blot assay of substrate protein degradation in hPBMC, IKZF1. It counts as cell-based. As to conditions: hPBMC cells, compound 500 nM, 24 hours, Western blot. The procedure: as §1, §2, §3

Structures are written as SMILES. pIC50: −log10 of the molar value.

Data on five compounds can be found in patent US20260028326A1, “COMPOUND BASED ON ISOINDOLINE-SUBSTITUTED GLUTARIMIDE BACKBONE AND USE THEREOF” (GLUETACS THERAPEUTICS (SHANGHAI) CO., LTD., priority 2022, published 2026).

Chain of IKZF1 protein (Q13422 whole entry): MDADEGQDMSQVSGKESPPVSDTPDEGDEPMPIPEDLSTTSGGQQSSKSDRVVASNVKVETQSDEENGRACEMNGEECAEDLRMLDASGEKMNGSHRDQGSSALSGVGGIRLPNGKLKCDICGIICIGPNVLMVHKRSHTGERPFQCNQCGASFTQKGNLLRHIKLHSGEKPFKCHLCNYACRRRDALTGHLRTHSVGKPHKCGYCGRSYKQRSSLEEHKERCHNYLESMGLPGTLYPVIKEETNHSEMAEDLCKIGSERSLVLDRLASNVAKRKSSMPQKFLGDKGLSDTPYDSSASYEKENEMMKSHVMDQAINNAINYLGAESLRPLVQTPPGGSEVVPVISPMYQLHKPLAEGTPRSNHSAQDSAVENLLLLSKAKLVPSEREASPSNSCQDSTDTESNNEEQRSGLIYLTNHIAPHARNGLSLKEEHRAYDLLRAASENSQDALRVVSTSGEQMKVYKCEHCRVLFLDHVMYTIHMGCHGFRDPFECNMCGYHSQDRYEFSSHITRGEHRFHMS
Chain of IKZF1 protein (Q96SW2 whole entry): as the sequence (Q96SW2 whole entry) above
Chain of IKZF1 protein (Q16531 whole entry partner): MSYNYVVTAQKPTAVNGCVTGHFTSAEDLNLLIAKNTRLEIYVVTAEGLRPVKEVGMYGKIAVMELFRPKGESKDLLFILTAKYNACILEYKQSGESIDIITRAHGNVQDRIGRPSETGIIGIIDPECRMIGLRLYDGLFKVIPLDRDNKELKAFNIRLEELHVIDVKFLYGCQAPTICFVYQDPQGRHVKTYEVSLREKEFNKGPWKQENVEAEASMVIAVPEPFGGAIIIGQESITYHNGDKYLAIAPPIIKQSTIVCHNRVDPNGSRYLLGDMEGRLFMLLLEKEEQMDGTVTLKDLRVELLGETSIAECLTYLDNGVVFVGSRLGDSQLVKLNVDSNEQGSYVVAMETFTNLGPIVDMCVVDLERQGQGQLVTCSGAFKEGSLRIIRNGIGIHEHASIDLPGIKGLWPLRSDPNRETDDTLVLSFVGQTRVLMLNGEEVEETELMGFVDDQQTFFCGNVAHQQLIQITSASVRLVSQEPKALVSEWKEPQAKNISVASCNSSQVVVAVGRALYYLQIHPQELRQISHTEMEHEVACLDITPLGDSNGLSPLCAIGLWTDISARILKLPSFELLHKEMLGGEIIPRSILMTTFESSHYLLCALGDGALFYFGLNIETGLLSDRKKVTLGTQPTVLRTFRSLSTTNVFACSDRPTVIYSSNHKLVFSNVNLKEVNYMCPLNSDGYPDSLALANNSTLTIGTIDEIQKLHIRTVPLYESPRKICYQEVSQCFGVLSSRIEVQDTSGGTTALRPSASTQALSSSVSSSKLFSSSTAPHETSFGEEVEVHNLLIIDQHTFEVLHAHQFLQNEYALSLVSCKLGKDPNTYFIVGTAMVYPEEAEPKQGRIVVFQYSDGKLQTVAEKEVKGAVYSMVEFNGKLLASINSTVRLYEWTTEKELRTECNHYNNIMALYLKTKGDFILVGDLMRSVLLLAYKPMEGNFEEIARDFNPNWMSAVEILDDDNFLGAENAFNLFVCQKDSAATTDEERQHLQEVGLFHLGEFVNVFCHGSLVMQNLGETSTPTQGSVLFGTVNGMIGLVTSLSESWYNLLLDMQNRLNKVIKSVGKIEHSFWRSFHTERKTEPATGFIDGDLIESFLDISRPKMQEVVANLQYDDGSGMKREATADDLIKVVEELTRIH
Chain of IKZF3 protein (Q9UKT9 whole entry): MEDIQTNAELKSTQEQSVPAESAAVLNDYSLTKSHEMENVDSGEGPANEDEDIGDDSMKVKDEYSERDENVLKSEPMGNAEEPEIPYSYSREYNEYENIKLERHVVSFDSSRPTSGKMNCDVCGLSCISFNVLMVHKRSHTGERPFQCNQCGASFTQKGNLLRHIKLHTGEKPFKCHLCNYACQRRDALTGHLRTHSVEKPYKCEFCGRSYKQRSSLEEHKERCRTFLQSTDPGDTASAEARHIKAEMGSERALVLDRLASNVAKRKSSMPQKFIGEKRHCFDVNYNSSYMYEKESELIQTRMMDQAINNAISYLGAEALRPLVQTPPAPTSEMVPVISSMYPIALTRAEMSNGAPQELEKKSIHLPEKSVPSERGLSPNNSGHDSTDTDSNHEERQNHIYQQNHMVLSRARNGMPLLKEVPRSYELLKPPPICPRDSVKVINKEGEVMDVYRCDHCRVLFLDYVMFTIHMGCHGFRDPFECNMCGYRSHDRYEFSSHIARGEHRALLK
Chain of IKZF3 protein (Q96SW2 whole entry): as the sequence (Q96SW2 whole entry) above
Chain of IKZF3 protein (Q16531 whole entry partner): as the sequence (Q16531 whole entry partner) above
Chain of GSPT1 protein (P15170 whole entry): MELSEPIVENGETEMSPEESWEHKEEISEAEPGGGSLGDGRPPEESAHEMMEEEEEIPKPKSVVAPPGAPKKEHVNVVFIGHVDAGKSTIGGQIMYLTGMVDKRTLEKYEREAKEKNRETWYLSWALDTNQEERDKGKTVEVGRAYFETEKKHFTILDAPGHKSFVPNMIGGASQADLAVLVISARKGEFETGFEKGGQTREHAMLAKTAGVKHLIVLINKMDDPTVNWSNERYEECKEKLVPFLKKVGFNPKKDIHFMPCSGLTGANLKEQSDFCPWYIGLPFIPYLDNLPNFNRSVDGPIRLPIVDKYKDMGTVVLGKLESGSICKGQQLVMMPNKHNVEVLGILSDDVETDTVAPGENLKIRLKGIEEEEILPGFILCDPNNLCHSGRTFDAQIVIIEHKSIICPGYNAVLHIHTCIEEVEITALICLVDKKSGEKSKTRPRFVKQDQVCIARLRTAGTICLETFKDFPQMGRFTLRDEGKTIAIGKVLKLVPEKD
Chain of GSPT1 protein (Q96SW2 whole entry): as the sequence (Q96SW2 whole entry) above
Chain of GSPT1 protein (Q16531 whole entry partner): as the sequence (Q16531 whole entry partner) above

For the compound `O=C1CCC(N2Cc3cc(CN4CCN(C(=O)C5=C(c6ccc(F)cc6)CCCC5)CC4)c(F)cc3C2=O)C(=O)N1` (centres unmarked) [GT-05473, 3-(6-fluoro-5-((4-(4′-fluoro-3,4,5,6-tetrahydro-[1,1′-biphenyl]-2-carbonyl)piperazin-1-yl)methyl)-1-oxoisoindolin-2-yl)piperidine-2,6-dione], the “residual substrate protein level, GSPT1” value at GSPT1 protein is listed as “A (A represents a residual substrate protein level of <50%)”. Further, in assay [1], the pIC50 (in general, the negative decadic logarithm of the IC50, by convention in mol/L) was 5.94. Besides, on IKZF3 protein, the “residual substrate protein level, IKZF3” value was “B (B represents a residual substrate protein level of >50%)”. Also, on IKZF1 protein, the “residual substrate protein level, IKZF1” value was “B (B represents a residual substrate protein level of >50%)”.
For `CC1(C)CCC(CN2CCN(Cc3ccc4c(c3)CN(C3CCC(=O)NC3=O)C4=O)C(C(F)(F)F)C2)=C(c2ccc(F)cc2)C1` (centres unmarked) [GT-05846, 3-(5-((4-((4′-fluoro-5,5-dimethyl-3,4,5,6-tetrahydro-[1,1′-biphenyl]-2-yl)methyl)-2-(trifluoromethyl)piperazin-1-yl)methyl)-1-oxoisoindolin-2-yl)piperidine-2,6-dione], the “residual substrate protein level, GSPT1” value on GSPT1 protein was “A (A represents a residual substrate protein level of <50%)”. The pIC50 in assay [1] is 6.03. For the same compound, the “residual substrate protein level, IKZF3” value on IKZF3 protein is “B (B represents a residual substrate protein level of >50%)”. On IKZF1 protein, the “residual substrate protein level, IKZF1” value was “B (B represents a residual substrate protein level of >50%)”.
Turning to `CC1(C)CCC(CN2CCN(Cc3ccc4c(c3)CN(C3CCC(=O)NC3=O)C4=O)C(C(F)(F)F)C2)=C(c2ccc(Cl)cc2)C1` (centres unmarked) [GT-05796, 3-(5-((4-((4′-chloro-5,5-dimethyl-3,4,5,6-tetrahydro-[1,1′-biphenyl]-2-yl)methyl)-2-(trifluoromethyl)piperazin-1-yl)methyl)-1-oxoisoindolin-2-yl)piperidine-2,6-dione], the “residual substrate protein level, GSPT1” value on GSPT1 protein is given as “A (A represents a residual substrate protein level of <50%)”. Besides, the pIC50 in assay [1] was 6.70. The “residual substrate protein level, IKZF3” value at IKZF3 protein was “B (B represents a residual substrate protein level of >50%)”. Further, the “residual substrate protein level, IKZF1” value at IKZF1 protein is reported as “B (B represents a residual substrate protein level of >50%)”.
For the compound `CC1(C)CCC(C(=O)N2CCC3(CC2)CN(C(=O)c2ccc4c(c2)CN(C2CCC(=O)NC2=O)C4=O)C3)=C(c2ccc(Cl)cc2)C1` (centres unmarked) [GT-05657, 3-(5-(7-(4′-chloro-5,5-dimethyl-3,4,5,6-tetrahydro-[1,1′-biphenyl]-2-carbonyl)-2,7-diazaspiro[3.5]nonane-2-carbonyl)-1-oxoisoindolin-2-yl)piperidine-2,6-dione], at GSPT1 protein, the “residual substrate protein level, GSPT1” value is on record as “B (B represents a residual substrate protein level of >50%)”. The pIC50 in assay [1] is 5.93. At IKZF3 protein, the “residual substrate protein level, IKZF3” value is “B (B represents a residual substrate protein level of >50%)”. At IKZF1 protein, the “residual substrate protein level, IKZF1” value is reported as “B (B represents a residual substrate protein level of >50%)”.
As to `O=C1CCC(N2Cc3cc(CN4C5CCC4CN(Cc4ccccc4-c4ccc(Cl)cc4)C5)ccc3C2=O)C(=O)N1` (centres unmarked) [GT-05710, 3-(5-((3-((4′-chloro-[1,1′-biphenyl]-2-yl)methyl)-3,8-diazabicyclo[3.2.1]octan-8-yl)methyl)-1-oxoisoindolin-2-yl)piperidine-2,6-dione], the “residual substrate protein level, GSPT1” value at GSPT1 protein was “A (A represents a residual substrate protein level of <50%)”. The compound further showed a negative-log IC50 (pIC50) in assay [1] of 5.96. The “residual substrate protein level, IKZF3” value on IKZF3 protein is “A (A represents a residual substrate protein level of <50%)”. Moreover, the “residual substrate protein level, IKZF1” value on IKZF1 protein is “B (B represents a residual substrate protein level of >50%)”.
